# Measured values published in patent US6444688B1, “Compounds and compositions with nitrogen-containing non-basic side chains” (Eli Lilly and Company, priority 1995, dated 2002).
# Several values for one entry are separate records, joined by “and”; a condition that tells them apart may be missing. Equal values may be shown once. Marks after values point to notes of the source that are not given here.
# Assays:
# Type in all cases: in vivo, Sprague Dawley rats
# [1] = system: uterine eosinophil peroxidase activity; assay: Uterine eosinophil peroxidase (EPO) assay, four day dosing; settings: OVX rats, oral, daily for 4 days
# Protocol: (§1) Animals were dosed daily for 4 days. […] A blood sample was collected by cardiac puncture.
# [2] = system: ovariectomized (OVX) rats; assay: Four day dosing regimen, post-menopausal rat model: wet uterine weight; settings: OVX rats, oral, daily for 4 days
# Protocol: as §1
# [3] = system: ovariectomized (OVX) rats; assay: Serum cholesterol analysis, four day dosing; settings: Rattus norvegicus, po, 96 h, OVX rats, oral, daily for 4 days, read-out: Serum Cholesterol (% dec. OVX)
# Protocol: as §1
# Blood samples were allowed to clot at room temperature for 2 hours, and serum was obtained following centrifugation for 10 minutes at 3000 rpm. Serum cholesterol was determined using a Boehringer Mannheim Diagnostics high performance cholesterol assay. Briefly the cholesterol was oxidized to cholest-4-en-3-one and hydrogen peroxide. The hydrogen peroxide was then reacted with phenol and 4-aminophenazone in the presence of peroxidase to produce a p-quinone imine dye, which was read spectrophotemetrically at 500 nm. Cholesterol concentration was then calculated against a standard curve. The entire assay was automated using a Biomek Automated Workstation.
Compound,Uterine EPO (Vmax) ([1]; dose 0.1 mg/kg),Uterine EPO (Vmax) ([1]; dose 1 mg/kg),Uterine EPO (Vmax) ([1]; dose 10 mg/kg),Uterine Weight (% inc. OVX) ([2]; dose 0.1 mg/kg),Uterine Weight (% inc. OVX) ([2]; dose 1 mg/kg),Uterine Weight (% inc. OVX) ([2]; dose 10 mg/kg),Uterine EPO (Vmax) ([1]; dose 0.01 mg/kg),inhibition in vivo at 0.01 mg/kg ([3]; dose 0.01 mg/kg) [%],inhibition in vivo at 0.1 mg/kg [3] [%],inhibition in vivo at 10 mg/kg [3] [%],Uterine Weight (% inc. OVX) ([2]; dose 0.01 mg/kg),inhibition in vivo at 1 mg/kg [3] [%]
O=C(c1ccc(OCCN2CCCCC2=O)cc1)c1c(-c2ccc(O)cc2)sc2cc(O)ccc12 [Compound 3],8.0 Vmax,7.8 Vmax,8.9 Vmax,13.3,17.8 % inc. OVX,57.6* % inc. OVX,,,,,,
O=C(c1ccc(OCCN2CCCC2=O)cc1)c1c(-c2ccc(O)cc2)sc2cc(O)ccc12 [Compound 6],3.6 Vmax,1.4 Vmax,3.7 Vmax,−9,15.4 % inc. OVX,40.3* % inc. OVX,,,,,,
O=C(c1ccc(OCC(=O)N2CCCC2)cc1)c1c(-c2ccc(O)cc2)sc2cc(O)ccc12 [Compound 8],3.6 Vmax and 4.4 Vmax,6.1 Vmax and 3.7 Vmax,,,,,3.5,27.2,17.4,70.3,−22.9,
O=C(c1ccc(OCC(=O)N2CCCCC2)cc1)c1c(-c2ccc(O)cc2)sc2cc(O)ccc12 [Compound 9],2.8 Vmax,3.6 Vmax,32 Vmax,−10.0,6.5 % inc. OVX,51.7* % inc. OVX,,,,,,
CCCCN(C)C(=O)COc1ccc(C(=O)c2c(-c3ccc(O)cc3)sc3cc(O)ccc23)cc1 [Compound 10],4.3 Vmax,3.1 Vmax,17.0 Vmax,1.5,−6.7 % inc. OVX,38.0* % inc. OVX,,,,,,
CN(C)C(=O)COc1ccc(C(=O)c2c(-c3ccc(O)cc3)sc3cc(O)ccc23)cc1 [Compound 12],3.7 Vmax,6.7 Vmax,122.3* Vmax,−7.7,15.4 % inc. OVX,60.7* % inc. OVX,,,,,,
O=C(c1ccc(OCCN2C(=O)CCC2=O)cc1)c1c(-c2ccc(O)cc2)sc2cc(O)ccc12 [Compound 13],1.9 Vmax,1.7 Vmax,2.5 Vmax,22.2,7.2 % inc. OVX,−4.0 % inc. OVX,,,,,,
N#CCOc1ccc(C(=O)c2c(-c3ccc(O)cc3)sc3cc(O)ccc23)cc1 [Compound 14],3.3 Vmax,2.4 Vmax,145.8* Vmax,18.8,14.6 % inc. OVX,124.6* % inc. OVX,,,,91.1,,
CC(C#N)Oc1ccc(C(=O)c2c(-c3ccc(O)cc3)sc3cc(O)ccc23)cc1 (stereo not shown) [Compound 16],2.3 Vmax,3.9 Vmax,23.4 Vmax,0.7,27.4 % inc. OVX,99.2* % inc. OVX,,,3.4,71.2,,28.8
O=C(NCCOc1ccc(C(=O)c2c(-c3ccc(O)cc3)sc3cc(O)ccc23)cc1)c1ccccc1 [Compound 18],3.2 Vmax,3.6 Vmax,3.6 Vmax,16.1,25.7 % inc. OVX,12.6 % inc. OVX,,,-10.8,12.8,,-12.2
CC(=O)N(CCOc1ccc(C(=O)c2c(-c3ccc(O)cc3)sc3cc(O)ccc23)cc1)C1CCCCC1 [Compound 19],5.4 Vmax,3.7 Vmax,29.3* Vmax,7,−25.5* % inc. OVX,47.0* % inc. OVX,,,,52.2,,20.1
O=C(NCCOc1ccc(C(=O)c2c(-c3ccc(O)cc3)sc3cc(O)ccc23)cc1)NC1CCCCC1 [Compound 20],3.0 Vmax,2.5 Vmax,2.9 Vmax,−29.9,−27.4 % inc. OVX,−32.7 % inc. OVX,,,,,,
O=C(c1ccc(OCCNC(=O)C2CCCCC2)cc1)c1c(-c2ccc(O)cc2)sc2cc(O)ccc12 [Compound 21],3.1 Vmax,2.6 Vmax,2.4 Vmax,−5.5,−11.5 % inc. OVX,8.6 % inc. OVX,,,9.3,24,,0.5
CC(C)(C)C(=O)N1CCCCC1COc1ccc(C(=O)c2c(-c3ccc(O)cc3)sc3cc(O)ccc23)cc1 (stereo not shown) [Compound 22],3.5 Vmax,20.0 Vmax,69.5* Vmax,1.9,19.6 % inc. OVX,46.9* % inc. OVX,,,22.1,71.5,,36.2
